Key:
[1] = molecular target: T1, Serine/threonine-protein kinase PLK4 (Homo sapiens, UniProt O00444); assay: Inhibition of PLK4 (unknown origin)
T1 sequence (O00444 whole entry): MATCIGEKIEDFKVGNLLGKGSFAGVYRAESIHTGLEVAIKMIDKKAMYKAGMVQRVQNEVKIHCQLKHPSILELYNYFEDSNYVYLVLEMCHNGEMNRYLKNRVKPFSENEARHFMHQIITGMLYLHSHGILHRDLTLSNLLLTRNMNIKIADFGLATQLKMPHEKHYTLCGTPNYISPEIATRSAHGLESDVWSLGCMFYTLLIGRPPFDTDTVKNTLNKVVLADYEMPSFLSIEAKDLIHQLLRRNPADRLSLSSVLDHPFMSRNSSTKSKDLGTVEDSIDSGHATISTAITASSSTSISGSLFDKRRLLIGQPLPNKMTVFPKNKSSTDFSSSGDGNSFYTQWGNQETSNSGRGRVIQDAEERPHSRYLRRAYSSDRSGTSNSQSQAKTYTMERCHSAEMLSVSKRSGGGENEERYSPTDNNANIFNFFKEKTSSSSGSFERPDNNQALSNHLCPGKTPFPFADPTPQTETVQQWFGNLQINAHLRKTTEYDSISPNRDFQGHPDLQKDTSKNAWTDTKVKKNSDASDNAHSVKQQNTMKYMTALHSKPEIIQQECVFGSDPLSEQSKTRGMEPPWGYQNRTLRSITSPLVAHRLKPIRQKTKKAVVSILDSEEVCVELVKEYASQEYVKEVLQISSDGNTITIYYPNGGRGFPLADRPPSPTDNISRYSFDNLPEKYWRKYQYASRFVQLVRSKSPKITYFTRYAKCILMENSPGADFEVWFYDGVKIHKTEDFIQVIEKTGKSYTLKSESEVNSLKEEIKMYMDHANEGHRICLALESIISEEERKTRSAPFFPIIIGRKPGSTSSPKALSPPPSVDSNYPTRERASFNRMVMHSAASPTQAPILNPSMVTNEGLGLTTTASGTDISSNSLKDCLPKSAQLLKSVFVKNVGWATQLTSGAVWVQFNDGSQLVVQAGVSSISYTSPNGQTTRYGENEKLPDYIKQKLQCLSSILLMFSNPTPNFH

[2] = molecular target: T2, Receptor-type tyrosine-protein kinase FLT3 (Homo sapiens, UniProt P36888); assay: Inhibition of FLT3 (unknown origin)
T2 sequence (P36888 whole entry): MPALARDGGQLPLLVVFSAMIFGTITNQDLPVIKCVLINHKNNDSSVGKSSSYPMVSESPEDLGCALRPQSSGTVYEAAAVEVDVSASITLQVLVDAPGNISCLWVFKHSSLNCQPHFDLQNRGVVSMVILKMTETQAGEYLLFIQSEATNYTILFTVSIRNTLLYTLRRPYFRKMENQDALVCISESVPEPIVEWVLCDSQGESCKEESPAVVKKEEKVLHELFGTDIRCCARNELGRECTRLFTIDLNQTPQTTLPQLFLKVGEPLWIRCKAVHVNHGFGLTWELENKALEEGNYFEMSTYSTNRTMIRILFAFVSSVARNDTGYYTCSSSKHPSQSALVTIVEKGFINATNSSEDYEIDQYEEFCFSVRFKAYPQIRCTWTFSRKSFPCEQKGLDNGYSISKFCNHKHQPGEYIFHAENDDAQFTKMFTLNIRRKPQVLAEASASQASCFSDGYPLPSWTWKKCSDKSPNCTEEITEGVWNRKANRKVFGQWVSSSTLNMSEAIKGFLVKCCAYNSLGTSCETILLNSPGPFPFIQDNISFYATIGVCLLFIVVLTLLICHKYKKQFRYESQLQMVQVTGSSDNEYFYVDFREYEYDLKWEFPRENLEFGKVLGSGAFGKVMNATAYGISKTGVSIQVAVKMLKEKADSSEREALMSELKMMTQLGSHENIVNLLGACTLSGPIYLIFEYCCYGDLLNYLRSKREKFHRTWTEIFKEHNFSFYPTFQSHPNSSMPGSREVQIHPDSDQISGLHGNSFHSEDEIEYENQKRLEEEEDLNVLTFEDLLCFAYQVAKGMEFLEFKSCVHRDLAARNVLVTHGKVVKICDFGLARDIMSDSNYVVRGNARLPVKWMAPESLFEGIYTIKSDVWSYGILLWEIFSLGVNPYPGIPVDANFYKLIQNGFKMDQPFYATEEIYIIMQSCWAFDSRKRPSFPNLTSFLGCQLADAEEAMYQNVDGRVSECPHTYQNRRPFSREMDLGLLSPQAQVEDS

MDA-MB-468 [3] = assay: Growth inhibition of human MDA-MB-468 cells; type: functional
MCF7 = assay: Growth inhibition of human MCF7; type: functional
HCC1954 = assay: Growth inhibition of human HCC1954; type: functional
[4] = Lipophilicity, log D of the compound at pH 7.4; type: physicochemical; conditions: buffer
[5] = Dissociation constant, pKa of the compound; type: physicochemical
[6] = molecular target: Vascular endothelial growth factor receptor 2 (Homo sapiens, UniProt P35968); assay: Inhibition of KDR (unknown origin)
Aurora kinase A = molecular target: T3, Aurora kinase A (Homo sapiens, UniProt O14965); assay: Inhibition of AURKA (unknown origin)
T3 sequence (O14965 whole entry): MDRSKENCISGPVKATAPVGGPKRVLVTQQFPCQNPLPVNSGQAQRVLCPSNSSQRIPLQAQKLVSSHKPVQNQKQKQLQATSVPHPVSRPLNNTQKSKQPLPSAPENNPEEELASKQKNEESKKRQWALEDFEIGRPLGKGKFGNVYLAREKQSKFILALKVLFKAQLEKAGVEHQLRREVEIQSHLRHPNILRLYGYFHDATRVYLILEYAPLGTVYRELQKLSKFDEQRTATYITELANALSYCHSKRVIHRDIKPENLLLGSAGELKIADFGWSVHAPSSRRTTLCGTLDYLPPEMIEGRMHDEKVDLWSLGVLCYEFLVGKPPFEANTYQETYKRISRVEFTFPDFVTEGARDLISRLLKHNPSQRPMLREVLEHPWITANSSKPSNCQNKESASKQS

Aurora kinase B = Aurora kinase B (Homo sapiens, UniProt Q96GD4); assay: Inhibition of AURKB (unknown origin)
CYP2C9 = CYP2C9 (Homo sapiens, UniProt P11712); assay: Inhibition of CYP2C9 (unknown origin) at 1 uM; type: ADME
CYP2C19 = CYP2C19 (Homo sapiens, UniProt P33261); assay: Inhibition of CYP2C19 (unknown origin) at 1 uM; type: ADME
CYP3A4 = CYP3A4 (Homo sapiens, UniProt P08684); assay: Inhibition of CYP3A4 (unknown origin) at 1 uM; type: ADME
[7] = Half life in mouse microsomes; type: ADME, Microsome
[8] = Half life in human microsomes; type: ADME, Microsome
[9] = Cmax in mouse at 25 mg/kg, po; type: ADME, organism-based; set-up: dose 25 mg/kg, route oral; conditions: in vivo, read-out: Cmax
[10] = AUC in mouse at 25 mg/kg, po; type: ADME, organism-based; conditions: in vivo
[11] = Clearance in rat at 1 mg/kg, iv; type: ADME, organism-based; conditions: in vivo
[12] = Half life in rat at 1 mg/kg, iv; type: ADME, organism-based; conditions: in vivo
[13] = AUC in rat at 1 mg/kg, iv; type: ADME, organism-based; conditions: in vivo
[14] = AUC in rat at 5 mg/kg, po; type: ADME, organism-based; conditions: in vivo, read-out: AUC
[15] = Oral bioavailability in rat at 5 mg/kg; type: ADME, organism-based; conditions: in vivo
MDA-MB-468 [16] = assay: Antitumor activity against human MDA-MB-468 cells xenografted in mouse assessed as tumor growth inhibition at 37.5 mg/kg, po qd for 21 days measured on day 21 post last dose relative to vehicle control; type: functional; conditions: MDA-MB-468, po, 504 h, read-out: TGI
[17] = Toxicity in mouse xenografted with human MDA-MB-468 cells assessed as body weight loss at 37.5 mg/kg, po qd for 21 days measured during compound dosing relative to vehicle control; type: organism-based; conditions: in vivo, 504 h

Chain of Aurora kinase B (Q96GD4 whole entry): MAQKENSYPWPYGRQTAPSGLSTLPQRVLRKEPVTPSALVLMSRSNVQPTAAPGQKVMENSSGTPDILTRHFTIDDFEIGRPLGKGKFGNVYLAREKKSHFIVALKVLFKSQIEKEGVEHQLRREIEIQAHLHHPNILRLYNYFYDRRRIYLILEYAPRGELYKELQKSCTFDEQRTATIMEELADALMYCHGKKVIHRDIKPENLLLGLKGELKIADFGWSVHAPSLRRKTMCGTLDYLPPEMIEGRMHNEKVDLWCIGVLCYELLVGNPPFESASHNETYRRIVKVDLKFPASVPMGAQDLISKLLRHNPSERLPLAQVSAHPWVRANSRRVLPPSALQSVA
Chain of CYP2C19 (P33261 whole entry): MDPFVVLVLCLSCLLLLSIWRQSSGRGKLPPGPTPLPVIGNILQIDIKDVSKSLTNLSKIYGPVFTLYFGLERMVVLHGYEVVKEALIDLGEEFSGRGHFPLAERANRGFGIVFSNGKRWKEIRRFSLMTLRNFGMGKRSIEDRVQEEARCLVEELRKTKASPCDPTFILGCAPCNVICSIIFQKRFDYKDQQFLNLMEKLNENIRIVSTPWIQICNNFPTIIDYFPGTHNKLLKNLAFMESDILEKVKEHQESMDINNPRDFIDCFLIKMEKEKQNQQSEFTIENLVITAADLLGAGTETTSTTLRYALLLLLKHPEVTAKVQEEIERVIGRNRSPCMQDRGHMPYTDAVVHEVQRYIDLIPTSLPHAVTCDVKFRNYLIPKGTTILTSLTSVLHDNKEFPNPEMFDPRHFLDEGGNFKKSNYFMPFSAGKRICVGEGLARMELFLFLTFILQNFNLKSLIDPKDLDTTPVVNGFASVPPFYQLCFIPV
Chain of CYP2C9 (P11712 whole entry): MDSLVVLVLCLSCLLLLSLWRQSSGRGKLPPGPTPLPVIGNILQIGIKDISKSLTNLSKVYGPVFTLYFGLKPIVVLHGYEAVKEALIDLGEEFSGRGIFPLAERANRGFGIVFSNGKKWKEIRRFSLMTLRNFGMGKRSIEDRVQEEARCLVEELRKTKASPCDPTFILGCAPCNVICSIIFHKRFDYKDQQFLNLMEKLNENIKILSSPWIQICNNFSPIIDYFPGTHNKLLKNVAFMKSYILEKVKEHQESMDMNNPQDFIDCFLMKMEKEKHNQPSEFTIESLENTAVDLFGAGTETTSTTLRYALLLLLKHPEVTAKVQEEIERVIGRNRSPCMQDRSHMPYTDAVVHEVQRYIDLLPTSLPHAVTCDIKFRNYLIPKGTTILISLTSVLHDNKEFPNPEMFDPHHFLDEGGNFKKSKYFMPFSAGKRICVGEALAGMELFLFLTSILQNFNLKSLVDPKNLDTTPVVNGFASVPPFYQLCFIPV
Chain of CYP3A4 (P08684 whole entry): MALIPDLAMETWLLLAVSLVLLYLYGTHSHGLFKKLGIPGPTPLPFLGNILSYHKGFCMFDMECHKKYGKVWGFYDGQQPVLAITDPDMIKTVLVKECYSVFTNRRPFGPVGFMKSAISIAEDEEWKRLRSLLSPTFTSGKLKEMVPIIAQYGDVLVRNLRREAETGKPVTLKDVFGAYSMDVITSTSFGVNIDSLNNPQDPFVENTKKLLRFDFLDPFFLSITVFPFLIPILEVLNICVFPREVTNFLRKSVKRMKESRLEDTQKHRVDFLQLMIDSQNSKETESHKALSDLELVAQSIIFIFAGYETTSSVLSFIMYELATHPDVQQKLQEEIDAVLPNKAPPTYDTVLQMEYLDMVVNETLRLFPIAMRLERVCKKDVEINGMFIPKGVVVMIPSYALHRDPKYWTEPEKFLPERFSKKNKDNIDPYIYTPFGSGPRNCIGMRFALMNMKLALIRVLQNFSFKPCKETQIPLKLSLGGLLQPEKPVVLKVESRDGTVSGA
Chain of Vascular endothelial growth factor receptor 2 (P35968 whole entry): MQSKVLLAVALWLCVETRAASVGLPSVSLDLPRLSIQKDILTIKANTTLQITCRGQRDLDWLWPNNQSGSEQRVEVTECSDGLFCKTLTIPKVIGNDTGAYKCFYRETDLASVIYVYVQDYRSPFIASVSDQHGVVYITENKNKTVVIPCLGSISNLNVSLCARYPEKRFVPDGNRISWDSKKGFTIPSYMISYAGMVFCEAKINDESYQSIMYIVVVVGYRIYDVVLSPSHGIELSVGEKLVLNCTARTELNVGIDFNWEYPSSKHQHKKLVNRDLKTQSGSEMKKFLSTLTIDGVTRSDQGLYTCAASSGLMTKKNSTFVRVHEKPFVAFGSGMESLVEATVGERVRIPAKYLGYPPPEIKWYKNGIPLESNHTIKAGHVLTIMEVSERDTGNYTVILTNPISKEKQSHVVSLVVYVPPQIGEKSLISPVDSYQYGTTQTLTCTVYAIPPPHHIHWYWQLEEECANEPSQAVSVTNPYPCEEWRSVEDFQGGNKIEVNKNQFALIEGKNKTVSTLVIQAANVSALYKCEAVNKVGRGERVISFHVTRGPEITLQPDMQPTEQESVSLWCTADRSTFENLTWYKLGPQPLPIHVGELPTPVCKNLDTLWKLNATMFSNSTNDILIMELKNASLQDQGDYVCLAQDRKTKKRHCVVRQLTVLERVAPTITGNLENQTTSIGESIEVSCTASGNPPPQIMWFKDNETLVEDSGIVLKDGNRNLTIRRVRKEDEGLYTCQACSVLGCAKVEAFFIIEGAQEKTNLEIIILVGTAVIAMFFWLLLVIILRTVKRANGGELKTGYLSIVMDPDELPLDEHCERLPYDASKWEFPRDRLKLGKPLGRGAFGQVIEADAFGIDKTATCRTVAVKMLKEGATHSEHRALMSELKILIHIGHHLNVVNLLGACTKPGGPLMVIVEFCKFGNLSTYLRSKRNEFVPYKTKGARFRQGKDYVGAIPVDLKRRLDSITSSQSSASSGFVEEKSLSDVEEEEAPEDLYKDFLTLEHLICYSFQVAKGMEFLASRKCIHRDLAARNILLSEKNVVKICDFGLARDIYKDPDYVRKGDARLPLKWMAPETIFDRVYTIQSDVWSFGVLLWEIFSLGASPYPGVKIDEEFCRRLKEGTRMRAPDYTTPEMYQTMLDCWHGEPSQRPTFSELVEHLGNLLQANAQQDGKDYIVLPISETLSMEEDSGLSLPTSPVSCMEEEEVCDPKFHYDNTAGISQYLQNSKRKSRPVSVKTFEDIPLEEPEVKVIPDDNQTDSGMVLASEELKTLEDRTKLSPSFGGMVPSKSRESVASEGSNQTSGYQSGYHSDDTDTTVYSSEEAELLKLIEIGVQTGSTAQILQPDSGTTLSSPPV

Structure (SMILES) | IC50 [1] | IC50 [2] | GI50 (MDA-MB-468 [3]) | GI50 (MCF7) | GI50 (HCC1954) | logD [4] | IC50 (Aurora kinase A) | IC50 (Aurora kinase B) | inhibition at 1 µM (CYP2C9) | inhibition at 1 µM (CYP2C19) | inhibition at 1 µM (CYP3A4) | half-life [7] | half-life [8] | Cmax [9] | AUC [10] | clearance [11] | half-life [12] | AUC [13] | AUC [14] | bioavailability [15] | other results
COc1ccc2c(c1)[C@]1(C[C@H]1c1ccc3c(-c4ccc(C5(F)CCN(C)CC5)cc4)n[nH]c3c1)C(=O)N2 | 1.5 nM | 200 nM | 220 nM | 150 nM | 1420 nM | 4 |  |  |  |  |  |  |  |  |  |  |  |  |  |  | pKa [5]: 7.7
COc1ccc2c(c1)[C@]1(C[C@H]1c1ccc3c(-c4ccc(N5CCN(C)CC5)cc4)n[nH]c3c1)C(=O)N2 | 0.94 nM | 45 nM | 15 nM | 1 nM | 1400 nM | 4 | > 1000 nM | 6.9 nM | 35% | 33% | 3% | 9 min | 19 min | 710 ng/mL | 1830 ng·h/mL | 68.3 mL/min/kg | 78 min | 270 ng·h/mL | 260 ng·h/mL | 22% | IC50 [6]: 9400 nM; inhibition in vivo at 37.5 mg/kg (MDA-MB-468 [16]): 96%; Activity [17]: < 20%
COc1ccc2c(c1)[C@]1(C[C@H]1c1ccc3c(-c4ccc(N5CCN(C)CC5)nc4)n[nH]c3c1)C(=O)N2 | 0.69 nM | 97 nM |  | 100 nM | 3300 nM | 3.3 | > 1000 nM | 10 nM | 34% | 30% | 6% | 8 min | 20 min | 71 ng/mL | 140 ng·h/mL | 63.3 mL/min/kg | 96 min | 270 ng·h/mL | 140 ng·h/mL | 10% | IC50 [6]: 14000 nM
CCN1CCN(c2ccc(-c3n[nH]c4cc([C@@H]5C[C@@]56C(=O)Nc5ccc(OC)cc56)ccc34)cc2)CC1 | 1.6 nM | 62 nM | 31 nM | 6.3 nM | 240 nM | 4.8 | > 1000 nM | 8.5 nM | 37% | 60% | 6% | 15 min | > 60 min | 1100 ng/mL | 3000 ng·h/mL | 55 mL/min/kg | 96 min | 310 ng·h/mL | 310 ng·h/mL | 11% | inhibition in vivo at 37.5 mg/kg (MDA-MB-468 [16]): 48%; Activity [17]: < 20%

Reference: ChEMBL document CHEMBL4428091, “Design and optimization of (3-aryl-1H-indazol-6-yl)spiro[cyclopropane-1,3'-indolin]-2'-ones as potent PLK4 inhibitors with oral antitumor efficacy” (Bioorg Med Chem Lett, 2016)
